Measured values taken from US9468690B2, “Decorin gene delivery system and cancer treatment” ([…] CO., LTD., priority 2005, dated 2016).

What was measured:
Assay type in all cases: cell-based, human
U343 cells [1] = experiment: Annexin V-FITC and PI dual staining, flow cytometry; settings: FIG. 9b, replication-incompetent adenoviruses
Excerpt: In addition, to examine early apoptosis induced by decorin, several human tumor cell lines were infected with each adenovirus as described above. The infected cells were collected and then processed for Annexin V/PI dual staining according to manufacturer's instruction in the ApoAlert V-FITC (fluorescein isothiocyanate) apoptosis detection kit (Clontech, Palo Alto, Calif.), followed by flow cytometric analysis.

U87MG cells [2] = experiment: Flow cytometry after PI staining, subG1 cell population
Experimental: (§1) To examine apoptosis induced by decorin, human tumor cell lines, U343, U87MG, C33A, Hep3B and A549 were introduced to 25T culture flasks and 24 hr later, were infected with each adenovirus at MOIs of 0.5-50. […] After 48 hr, 72 hr and 96 hr of infection, the infected cells were collected and fixed in 70% ethanol at 4° C. over 24 hr. Following the fixation, the cells were incubated at 4° C. with a mixture of PI (propidium iodide, 50 μg/ml) and RNase (ribonuclease) for 15 min and the FACS analysis was then performed.

C33A cells [3] = experiment: as above
Experimental: as §1

Hep3B cells [4] = experiment: as above
Experimental: as §1

U343 cells [5] = experiment: as above
Experimental: as §1

A549 cells [6] = experiment: as above
Experimental: as §1

U87MG cells [7] = experiment: TUNEL assay
Experimental: (§2) U343 (5×10^4), U87MG (5×10^4), C33A (5×10^5), Hep3B (4×10^5) and A549 (5×10^4) cells were plated onto a chamber slide and then infected with adenovirus at an MOI of 0.2-20. Following 24 hr and 48 hr of infection, medium was removed and TUNNEL (terminal deoxynucleotidyl transferase(TdT)-mediated dUTP nick end labeling) assay was carried out according to the manufacturer's instruction of ApopTag kit (Intergen, Purchase, N.Y.). For color development, cells were incubated with peroxidase-conjugated avidin and DAB (diaminobenzidine; DAKO, Carpinteria, Calif.). At the time that color of cells became brown, cells were counterstained with 0.5% methyl green for 10 min and observed under microscope in more than 4 selected fields. The ratio of stained cells to total cells was calculated.

C33A cells [8] = experiment: TUNEL assay
Experimental: as §2

Hep3B cells [9] = experiment: TUNEL assay
Experimental: as §2

U343 cells [10] = experiment: TUNEL assay
Experimental: as §2

A549 cells [11] = experiment: TUNEL assay
Experimental: as §2

[12] = Table 1, oncolytic adenoviruses, 48-96 hr post-infection
[13] = Table 2, replication-incompetent adenoviruses
[14] = Table 3 lower part, replication-incompetent adenoviruses
[15] = Table 3 upper part, oncolytic adenoviruses

CCc1c2c(nc3ccc(OC(=O)N4CCC(N5CCCCC5)CC4)cc13)-c1cc3c(c(=O)n1C2)COC(=O)[C@]3(O)CC [CPT, camptothecin-11]
apoptotic rate (Annexin V-FITC+/PI−) (U343 cells [1]): 19.41% | subG1 cell population (%) (U87MG cells [2]; [12]): 14.78% | subG1 cell population (%) (U87MG cells [2]; [13]): 12.51% | subG1 cell population (%) (C33A cells [3]; [12]): 26.44% | subG1 cell population (%) (C33A cells [3]; [13]): 68.20% | subG1 cell population (%) (Hep3B cells [4]; [12]): 5.99% | subG1 cell population (%) (Hep3B cells [4]; [13]): 16.60% | subG1 cell population (%) (U343 cells [5]; [12]): 59.86% | subG1 cell population (%) (U343 cells [5]; [13]): 29.02% | subG1 cell population (%) (A549 cells [6]; [12]): 17.96% | subG1 cell population (%) (A549 cells [6]; [13]): 21.59% | Proportion of apoptotic cells (%) (U87MG cells [7]; [14]): 40.00 ± 13.17% | Proportion of apoptotic cells (%) (U87MG cells [7]; [15]): 83.0 ± 29.29% | Proportion of apoptotic cells (%) (C33A cells [8]; [14]): 70.51 ± 15.90% | Proportion of apoptotic cells (%) (C33A cells [8]; [15]): 60.1 ± 25.91% | Proportion of apoptotic cells (%) (Hep3B cells [9]; [14]): 75.86 ± 3.11% | Proportion of apoptotic cells (%) (Hep3B cells [9]; [15]): 71.2 ± 15.73% | Proportion of apoptotic cells (%) (U343 cells [10]; [14]): 74.67 ± 12.38% | Proportion of apoptotic cells (%) (U343 cells [10]; [15]): 53.5 ± 7.45% | Proportion of apoptotic cells (%) (A549 cells [11]; [14]): 69.80 ± 8.38% | Proportion of apoptotic cells (%) (A549 cells [11]; [15]): 37.5 ± 5.35%
